Source: ChEMBL document CHEMBL5113519, “Discovery of Novel Imidazo[4,5-c]quinoline Derivatives to Treat Inflammatory Bowel Disease (IBD) by Inhibiting Multiple Proinflammatory Signaling Pathways and Restoring Intestinal Homeostasis” (J Med Chem, 2022)
Calls of active or inactive are those of the source. No cut-off for these calls is given here.

Legend:
Mus musculus [1] = assay: Anti-inflammatory bowel disease activity in DSS-induced acute enteritis mouse model assessed as decrese in lactobacillus abundance at 3 mg/kg; format: functional, organism-based
THP1-Dual [2] = assay: Downregulation of TNF alpha in human THP1-Dual cells at 1 uM incubated for 6 hrs; format: functional, cell-based
Mus musculus [3] = assay: Anti-inflammatory activity in TNBS induced IBD BALB/c mouse model assessed as reduction in bloody stool by measuring disease activity index score at 1 to 5 mg/kg via oral gavage administered daily for 12 days; format: functional, organism-based; conditions: dose 1-5 mg/kg, time 12.0 day
Mus musculus [4] = assay: Antiinflammatory activity in DSS-induced acute colitis C57BL/6 mouse model assessed as recovery of colon length at 1 to 3 mg/kg, po administered daily and measured upto 11 days; format: functional, organism-based; conditions: dose 1-3 mg/kg, time <= 11.0 day
Mus musculus [5] = assay: Antiinflammatory activity in DSS-induced acute colitis C57BL/6 mouse model assessed as reduction in weight loss by measuring DAI score at 1 to 3 mg/kg, po administered daily and measured upto 11 days; format: functional, organism-based; conditions: dose 1-3 mg/kg, time <= 11.0 day
THP1-Dual [6] = assay: Anti-inflammatory activity against LPS-stimulated human THP1-Dual cells assessed as reduction in STAT3 phosphorylation level incubated for 6 hrs by Western blot analysis; format: functional, cell-based; conditions: dose 0.33-3 µM, DDE = dose-dependent effect
THP1-Dual [7] = assay: Downregulation of unfolded protein response in human THP1-Dual cells at 1 uM incubated for 6 hrs; format: functional, cell-based
THP1-Dual [8] = assay: Inhibition of LPS induced IL-23A expression in human THP1-Dual cells at 1 uM incubated for 6 hrs; format: functional, cell-based
Mus musculus [9] = assay: Antiinflammatory activity in DSS-induced acute colitis C57BL/6 mouse model assessed as reduction in number of goblet cells in colon by measuring histopathological score at 1 to 3 mg/kg, po by H and E staining based analysis; format: functional, organism-based; conditions: dose 1-3 mg/kg
[10] = Toxicity in mouse assessed as change in body weight at 50 mg/kg measured upto 2 weeks; format: organism-based; conditions: in vivo, 336 h
[11] = Toxicity in mouse assessed as effect on white blood cell number at 50 mg/kg, IG measured upto 2 weeks; format: organism-based; conditions: in vivo, po, 336 h
[12] = Toxicity in mouse assessed as abnormal change in liver at 20 to 50 mg/kg, IG measured upto 2 weeks; format: organism-based; conditions: in vivo, po, 336 h, dose 20-50 mg/kg
THP1-Dual [13] = assay: Anti-inflammatory activity against LPS-stimulated human THP1-Dual cells assessed as reduction in STAT1 phosphorylation level incubated for 6 hrs by Western blot analysis; format: functional, cell-based; conditions: dose 0.33-3 µM, DDE = dose-dependent effect
[14] = Cytotoxicity against human GM00637 cells assessed as inhibition of cell growth measured after 24 hrs by CCK-8 method; format: toxicity, cell-based
[15] = Toxicity in mouse assessed as abnormal change in spleen at 20 to 50 mg/kg, IG measured upto 2 weeks; format: organism-based; conditions: in vivo, po, 336 h, dose 20-50 mg/kg
THP1-Dual [16] = assay: Downregulation of JAK/STAT in human THP1-Dual cells at 1 uM incubated for 6 hrs; format: functional, cell-based
[17] = Toxicity in mouse assessed as behavioral changes at 20 to 50 mg/kg, IG measured upto 2 weeks; format: organism-based; conditions: in vivo, po, 336 h, dose 20-50 mg/kg
Mus musculus [18] = assay: Anti-inflammatory bowel disease activity in DSS-induced acute enteritis mouse model assessed as decrese in bacteroides abundance at 3 mg/kg; format: functional, organism-based
THP1-Dual [19] = assay: Downregulation of IFN-alpha in human THP1-Dual cells at 1 uM incubated for 6 hrs; format: functional, cell-based
THP1-Dual [20] = assay: Downregulation of IFN-gamma in human THP1-Dual cells at 1 uM incubated for 6 hrs; format: functional, cell-based
Mus musculus [21] = assay: Antiinflammatory activity in DSS-induced acute enteritis C57BL mouse model assessed as suppression of DSS induced weight loss at 3 mg/kg, po administered daily and measured upto 11 days relative to control; format: functional; conditions: time <= 11 day
THP1-Dual [22] = assay: Downregulation of complement system in human THP1-Dual cells at 1 uM incubated for 6 hrs; format: functional, cell-based
THP1-Dual [23] = assay: Anti-inflammatory activity against LPS-stimulated human THP1-Dual cells assessed as inhibition of IL-1 beta secretion incubated for 6 hrs followed by LPS stimulation by Western blot analysis; format: functional, cell-based; conditions: dose 0.33-3 µM, DDE = dose-dependent effect
[24] = Toxicity in mouse assessed as abnormal change in lung at 20 to 50 mg/kg, IG measured upto 2 weeks; format: organism-based; conditions: in vivo, po, 336 h, dose 20-50 mg/kg
Mus musculus [25] = assay: Anti-inflammatory activity in TNBS induced IBD BALB/c mouse model assessed as reduction in stool softness by measuring disease activity index score at 1 to 5 mg/kg via oral gavage administered daily for 12 days; format: functional, organism-based; conditions: dose 1-5 mg/kg, time 12.0 day
Mus musculus [26] = assay: Anti-inflammatory activity in TNBS induced IBD BALB/c mouse model assessed as increase in survival probability at 5 mg/kg via oral gavage administered daily for 12 days; format: functional, organism-based; conditions: time 12.0 day
Mus musculus [27] = assay: Antiinflammatory activity in DSS-induced acute colitis C57BL/6 mouse model assessed as reduction in lamina propria damage in colon by measuring histopathological score at 1 to 3 mg/kg, po by H and E staining based analysis; format: functional, organism-based; conditions: dose 1-3 mg/kg
[28] = target: Tyrosine-protein kinase JAK1 (Homo sapiens, UniProt P23458); assay: Inhibition of JAK1 (unknown origin) using Kinase/Tyr 6 peptide as substrate incubated for 1 hrs in presence of ATP by fluorescence microplate reader analysis
Mus musculus [29] = assay: Antiinflammatory activity in DSS-induced acute colitis C57BL/6 mouse model assessed as reduction in colon villi integrity in colon by measuring histopathological score at 1 to 3 mg/kg, po by H and E staining based analysis; format: functional, organism-based; conditions: dose 1-3 mg/kg
[30] = Toxicity in mouse assessed as effect on neutrophils number at 20 to 50 mg/kg, IG measured upto 2 weeks; format: organism-based; conditions: in vivo, po, 336 h, dose 20-50 mg/kg
THP1-Dual [31] = assay: Anti-inflammatory activity against LPS-stimulated human THP1-Dual cells assessed as inhibition of IL-8 secretion incubated for 6 hrs followed by LPS stimulation by Western blot analysis; format: functional, cell-based; conditions: dose 0.33-3 µM, DDE = dose-dependent effect
[32] = Cytotoxicity against human HUVEC cells assessed as inhibition of cell growth measured after 24 hrs by CCK-8 method; format: toxicity, cell-based
Mus musculus [33] = assay: Anti-inflammatory bowel disease activity in DSS-induced acute enteritis mouse model assessed as reversal of intestinal microbiota at 3 mg/kg; format: functional, organism-based
[34] = Cytotoxicity against human THP1-Dual cells assessed as inhibition of cell growth measured after 24 hrs by CCK-8 method; format: toxicity, cell-based
THP1-Dual [35] = assay: Anti-inflammatory activity against LPS-stimulated human THP1-Dual cells assessed as inhibition of IL-6 secretion incubated for 6 hrs followed by LPS stimulation by Western blot analysis; format: functional, cell-based; conditions: dose 0.33-3 µM, DDE = dose-dependent effect
Mus musculus [36] = assay: Antiinflammatory activity in DSS-induced acute colitis C57BL/6 mouse model assessed as reduction in inflammatory cell infiltration in colon by measuring histopathological score at 1 to 3 mg/kg, po by H and E staining based analysis; format: functional, organism-based; conditions: dose 1-3 mg/kg
THP1-Dual [37] = assay: Inhibition of LPS induced IL-1 beta expression in human THP1-Dual cells at 1 uM incubated for 6 hrs; format: functional, cell-based
[38] = Toxicity in mouse assessed as abnormal change in heart at 20 to 50 mg/kg, IG measured upto 2 weeks; format: organism-based; conditions: in vivo, po, 336 h, dose 20-50 mg/kg
[39] = Toxicity in mouse assessed as abnormal change in kidney at 50 mg/kg, IG measured upto 2 weeks; format: organism-based; conditions: in vivo, po, 336 h
THP1-Dual [40] = assay: Inhibition of LPS induced IL12b expression in human THP1-Dual cells at 1 uM incubated for 6 hrs; format: functional, cell-based
Mus musculus [41] = assay: Antiinflammatory activity in DSS-induced acute colitis C57BL/6 mouse model assessed as reduction stool softness by measuring DAI score at 1 to 3 mg/kg, po administered daily and measured upto 11 days; format: functional, organism-based; conditions: dose 1-3 mg/kg, time <= 11.0 day

Chain of Tyrosine-protein kinase JAK1 (P23458 whole entry): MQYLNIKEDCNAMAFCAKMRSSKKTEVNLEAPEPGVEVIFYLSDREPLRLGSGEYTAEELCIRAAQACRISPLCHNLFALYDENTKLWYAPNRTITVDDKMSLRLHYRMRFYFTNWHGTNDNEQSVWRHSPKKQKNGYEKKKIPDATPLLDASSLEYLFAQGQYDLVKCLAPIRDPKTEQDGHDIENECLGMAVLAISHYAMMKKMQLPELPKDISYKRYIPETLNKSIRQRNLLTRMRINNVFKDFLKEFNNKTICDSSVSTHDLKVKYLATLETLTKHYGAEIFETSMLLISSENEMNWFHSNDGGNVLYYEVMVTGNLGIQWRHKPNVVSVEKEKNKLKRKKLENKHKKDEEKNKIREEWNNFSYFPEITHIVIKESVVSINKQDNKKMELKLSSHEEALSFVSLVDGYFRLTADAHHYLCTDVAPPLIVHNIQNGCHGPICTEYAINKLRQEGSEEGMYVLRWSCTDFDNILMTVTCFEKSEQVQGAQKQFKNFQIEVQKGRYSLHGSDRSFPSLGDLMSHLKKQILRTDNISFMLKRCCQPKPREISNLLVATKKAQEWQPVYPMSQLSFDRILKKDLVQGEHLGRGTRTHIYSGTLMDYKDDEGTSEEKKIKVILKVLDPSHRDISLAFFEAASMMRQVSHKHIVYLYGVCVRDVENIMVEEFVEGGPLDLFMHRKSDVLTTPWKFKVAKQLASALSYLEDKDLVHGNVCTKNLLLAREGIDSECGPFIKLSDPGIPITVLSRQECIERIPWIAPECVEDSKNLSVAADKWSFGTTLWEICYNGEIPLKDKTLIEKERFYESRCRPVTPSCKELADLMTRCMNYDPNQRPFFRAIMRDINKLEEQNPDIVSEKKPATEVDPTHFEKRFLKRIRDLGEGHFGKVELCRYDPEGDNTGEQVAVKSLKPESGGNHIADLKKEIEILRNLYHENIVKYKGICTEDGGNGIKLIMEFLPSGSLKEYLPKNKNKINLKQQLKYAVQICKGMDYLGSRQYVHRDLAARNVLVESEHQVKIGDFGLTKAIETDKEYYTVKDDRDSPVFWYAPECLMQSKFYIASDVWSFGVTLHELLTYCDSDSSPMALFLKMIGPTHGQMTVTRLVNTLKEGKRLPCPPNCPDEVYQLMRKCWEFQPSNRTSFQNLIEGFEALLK

Cc1nc2cnc3ccc(-c4cc(Cl)c(O)c(Cl)c4)cc3c2n1C1CCN(C)CC1
Activity (Mus musculus [1]): Active
Activity (THP1-Dual [2]): Active
Activity (Mus musculus [3]): Active
Activity (Mus musculus [4]): Active
Activity (Mus musculus [5]): Active
Activity (THP1-Dual [6]): Dde
Activity (THP1-Dual [7]): Active
inhibition (THP1-Dual [8]): Active
Activity (Mus musculus [9]): Active
Activity [10]: Non-Toxic
Activity [11]: Non-Toxic
Activity [12]: Non-Toxic
Activity (THP1-Dual [13]): Dde
IC50 at 24 h [14]: > 10 µM
Activity [15]: Non-Toxic
Activity (THP1-Dual [16]): Active
Activity [17]: Non-Toxic
Activity (Mus musculus [18]): Active
Activity (THP1-Dual [19]): Active
Activity (THP1-Dual [20]): Active
Activity (Mus musculus [21]): 10.81%
Activity (THP1-Dual [22]): Active
Activity (THP1-Dual [23]): Dde
Activity [24]: Non-Toxic
Activity (Mus musculus [25]): Active
Activity (Mus musculus [26]): Active
Activity (Mus musculus [27]): Active
IC50 [28]: 0.0089 µM
Activity (Mus musculus [29]): Active
Activity [30]: Non-Toxic
Activity (THP1-Dual [31]): Dde
IC50 at 24 h [32]: > 10 µM
Activity (Mus musculus [33]): Active
IC50 at 24 h [34]: 4.3 µM
Activity (THP1-Dual [35]): Dde
Activity (Mus musculus [36]): Active
inhibition (THP1-Dual [37]): Active
Activity [38]: Non-Toxic
Activity [39]: Non-Toxic
inhibition (THP1-Dual [40]): Active
Activity (Mus musculus [41]): Active
